According to patent publication US8178688B2, “Benzamidine derivatives, process for the preparation thereof and pharmaceutical composition comprising the same” (Dong Wha Pharmaceutical Co., Ltd., priority 2004, dated 2012):
Marks after values point to notes of the source that are not given here.

Columns and labels:
[1] = test system: osteoclast differentiation; assay: Inhibitory effects on osteoclast differentiation (co-culture of bone marrow cells with osteoblast, TRAP staining); assay type: cell-based, mice; details: Mus musculus, Osteoclast, 168 h; 1 m; co-culture of bone marrow cells and osteoblast, 7 days, TRAP-positive osteoclasts versus controls; read-out: % inhibitory activity on osteoclastogenesis
How it was run: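 Bone marrow cells from 6–8-week male ddY mice co-cultured with neonatal ICR mouse calvarial osteoblasts in α-MEM/FBS with dexamethasone (10^−7M) and vitamin D3 (10^−8M) for 7 days, compound and medium renewed every 2–3 days. TRAP-positive cells with ≥3 nuclei counted; inhibition given as percent of control.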

[2] = test system: rat models subjected to rib fracture; assay: Effect of promoting fracture healing in rib fracture-induced rat model (callus volume, callus osteoid volume); assay type: in vivo, SD rats
Experimental: The benzamidine compounds were assayed for therapeutic effect on bone fracture in rat models subjected to rib fracture. Benzamidine derivates are dosed from 2 days after operation for 2 weeks, and the changes on the volume and histology of callus were observed.
A total of 54 SD rats (8 weeks old upon receipt, Jung Ang Lab. Animal Co., Korea) were used. While being housed at a density of three to a plastic cage, the experimental animals were kept in a breeding room under controlled temperature (20-25° C.) and humidity (30-35%). Under light-dark cycles of 12 hours, the rats were allowed to have free access to feedstuff and tap water.
200 mg of benzamidine compounds (Methansulfonic acid or Hydrochloride) were completely dissolved in 5 ml of sterilized distilled water. The benzamidine derivatives in the solutions was orally administered at doses of 200 mg per kg of body weight once a day for 2 weeks from day 2 of the surgery.
8th and 9th rib of each animal was exposed by general operation under ketamine HCl and xylazine HCl anesthesia, and the exposed ribs were crossly dissected using surgical scissors. After rib-fracture, surgical wounds were closed with general skin suture.
8th and 9th ribs of each animal were separated at sacrifice and then the long axis and short axis of callus were calculated as mm units. The volume of callus was calculated as following Equation 2. Callus volume(mm^3)=(a×b^2)/2 Equation 2 • a: long diameter of bony callus • b: short diameter of bony callus
The 8th rib including fracture sites of each rat was separated and fixed in 10% neutral buffered formalin, and then decalcified in decalcifying solution (24.4% formic acid, and 0.5N sodium hydroxide) for 5 days (mixed decalcifying solution was exchanges once a day for 5 days). After decalcification, the rib was embedded in paraffin, sectioned (3˜4 μm) and stained with hematoxylin-eosin or Masson's trichrome for composition of callus observation.
Osteloid volume (OV/callus) in callus regions of prepared histological specimens were detected as % levels using automated image analysis (analySIS Image Processing; SIS, Germany) under microscopy.

[3] = test system: mouse models of ovalbumin-induced asthma; assay: Therapeutic effect in mouse model of asthma induced with ovalbumin (lung weight, total leukocytes in blood and BALF); assay type: in vivo, C57BL/6 mice
Experimental: The benzamidine compounds were assated for therapeutic effect on allergic inflammation in mouse models of ovalbumin-induced asthma. Starting on the day of immunization the benzamidine compounds were dosed for 17 consecutive days. The experimental animals were re-exposed to ovalbumin 14 days after the sensitization and then sacrificed 3 days after the re-exposure. Changes in lung weight, cellular components of peripheral blood and bronchoalveolar lavage fluid, and lung histopathology were observed.
A total of 110 female C57BL/6 mice (7-week-old, SLC, Japan) were adapted to a laboratory environment for 6 days before being used in earnest experiments. While being housed at a densirt of five in a plastic cage, the experimental animals were breed in a breeding room with controlled temperature (20-25° C.) and humidity (30-35%). Under light-dark cycles of 12 hours, mice were allowed to have free access to feedstuff and tap water. While asthma was induced in 100 mice by ovalbumin, 10 mice were used as a non-treated group.
200 mg of benzamidine compounds (Methansulfonic acid or Hydrochloride) were completely dissolved in 5 ml of sterilized distilled water. The benzamidine compound in the solutions was orally administered at doses of 200 mg per kg of body weight once a day from the day of the sensitization with ovalbumin. The control group was administered with equal volumes of sterilized distilled water in the same manner.
A solution of 200 μg of ovalbumin (Grade VI; Sigma, st. Louis, Mo., USA) and 180 mg of aluminium hydroxide (Al(OH)3, dried powder gel; Aldrich, Milwaukee, USA) in 4 ml of physiological saline was allowed to stand at 4° C. overnight and was administered to the experimental animals (200 μl, abdominal injection) for sensitization. As for the non-treated group, a solution of only aluminium hydroxide in saline was injected. 15 days after sensitization, a 1.5% ovalbumin solution was sprayed in air using a nebulizer, followed by exposing the experimental animals to the spray for 10 min to induce asthma therein. The non-treated group was exposed only to saline in the same manner. All the experimental animals were sacrificed 3 days after the exposure.
On the final day of experiment, the lungs were separated form adjacent organs. The removed lungs were weight among individual animals, the relative weight of the lungs was calculated as a percentage of body weight using the following Equation 3. Relative weight of Lung(%)=(Absolute lung weight/Body weight)×100 Equation 3
On the final day of experiment, all the experimental animals were etherized and underwent laparotomy to expose the abdominal vena cava, from which 1 ml of blood was the taken. Using a hemocytometer, a blood sample was measured for total leukocyte counts in a ×10^3/1 mm^3 units.
On the final day of experiment, secretions present in bronchi and alveola were examined for cyrological constitution. After veing etherized, the experimental animals were operated to open the cervical region and the thorax. The jugular vein was allowed to bleed, followed by endotracheal intubation. 3 ml of phosphate buffered saline was injected twice through the tube and the thorax was massaged for 30 sec to obtain cell suspension from the lungs. Using a hemocytometer, a […] was measured for total leukocyte counts in a ×10^5/1 ml units.

`CNc1nc(-c2ccc(OCCCCCOc3ccc(C(=N)NO)cc3)cc2)c(CCCl)s1` [Example 115, N-hydroxy-4-(5-[4-(5-(2-chloroethyl)-2-methylamino-1,3-thiazol-4-yl)phenoxy]pentoxy)-benzamidine] was tested, and the inhibition at 1 µM [1] was 96%, the “Changes on callus volume (mm^3)” value ([2]; 200 mg/kg oral once a day for 2 weeks from day 2 of surgery, 8th and 9th ribs, vehicle control 37.22 ± 8.23) was 24.06 ± 9.64* mm^3 and the “Changes on callus osteoid volume (OV/callus, %)” value ([2]; 200 mg/kg oral once a day for 2 weeks, 8th rib, vehicle control 35.88 ± 5.06) was 41.94 ± 6.33%. The “Changes on the lung weight, Absolute” value ([3]; 200 mg/kg oral once a day from sensitization, vehicle control 0.134 ± 0.012, sham 0.110 ± 0.009) was 0.114 ± 0.009 g and the “Changes on the lung weight, Relative (%)” value ([3]; 200 mg/kg oral once a day, % of body weight, vehicle control 0.780 ± 0.103, sham 0.694 ± 0.049) was 0.705 ± 0.046%.
